Test results from publication PMC8748916, “Microbial enzymes induce colitis by reactivating triclosan in the mouse gastrointestinal tract” (Nature Communications, 2022).
Values joined by “and” are separate entries in the source; they are usually repeats but may differ in a detail not shown here. Identical values can stand only once. Like-named read-outs stand apart in the source and are kept apart here.

Columns and labels:
[1] = tested on: gut microbial β-glucuronidase (GUS) enzymes; assay: Catalytic efficiency assay (HPLC) of TCS-G to TCS conversion by purified GUS enzymes; type: biochemical
[2] = cited from earlier work
human fecal bacteria = assay: Conversion of TCS-G to TCS by anaerobically cultured human fecal bacteria in vitro; type: in vitro ADME; conditions: from TCS-G, replicates
[3] = parameters: method as in earlier work; conditions: human, ref 32,33 (reply to reviewers), cited from earlier work
Loop 1 GUS enzymes = assay: In vitro IC50 assay, purified Loop 1 GUS enzymes (group statement); type: biochemical, gut microbial; conditions: Fp2-L1 GUS and several other Loop 1 GUS enzymes; conversion of TCS-G to TCS
Experimental: (§1) Reaction mixtures containing 10 µL GUS (10 nM final), 10 µL TCS-G (200 µM final), 5 µL inhibitor (various concentrations), and 25 µL buffer (50 mM HEPES, 50 mM NaCl, various pH) or (50 mM sodium acetate, 50 mM NaCl, various pH) were incubated for 10 min and quenched with 50 µL 25% trichloroacetic acid. Samples were centrifuged 10 min at 16,000 × g, and the supernatant was analyzed using the method described for the catalytic efficiency assay. Inhibition was calculated by the equation below:1 %inhibition=100×(1−(AUCinh−AUCmax)/(AUCmin−AUCmax)) where AUCmin is the signal of the uninhibited reaction, AUCmax is the signal of the 100% inhibited reaction, and AUCinh is the signal of the reaction at a given concentration of inhibitor. Percent inhibition values were plotted against the log of inhibitor concentration, and GraphPad Prism 8.0 was used to determine IC50 values.

C. perfringens GUS = C. perfringens GUS (Clostridium perfringens, UniProt Q8XP19); assay: biochemical
R. gnavus 3 GUS = R. gnavus 3 GUS (Mediterraneibacter gnavus, UniProt Z9UC37PQH0); assay: In vitro IC50 assay (TCS-G to TCS conversion, HPLC); type: biochemical
[4] = tested on: enzymes extracted from human fecal samples; assay: In fimo inhibition assay (TCS-G processing by human fecal extracts); type: biochemical; conditions: for % Inhibition: Fig. 4d, triplicate
Experimental: Fecal extracts were prepared and proteomic analysis was performed exactly as previously described. In total, 10 g of frozen human fecal sample was thawed and added to 25 mL extraction buffer (25 mM HEPES, 25 mM NaCl pH 6.5 with Roche Complete protease inhibitor tablet) and 0.5 g autoclaved garnet beads. The mixture was vortexed until homogenous and centrifuged at low speed (300 × g for 5 min at 4 °C). The supernatant was decanted. In all, 25 mL buffer was added to the pellet and the vortex and centrifugation steps repeated. The supernatants from these steps were then combined and centrifuged at low speed for two more cycles. The resultant supernatant was sonicated twice using 1 s pulses for 1.5 min and the lysate was centrifuged at 17,000 × g for 20 min in a Beckman Coulter J2-HC centrifuge. The decanted lysate was then washed with several exchanges of extraction buffer to remove metabolites and small molecules. Total protein concentration was quantitated using a Bradford assay. The fecal lysate was diluted to 1 mg/mL concentration and snap-frozen in small aliquots.
Reaction mixtures contained 5 µL fecal extract (0.1 mg/mL final), 10 µL TCS-G (200 µM final), 5 µL GUSi (10, 1, or 0.1 µM final), and 30 µL assay buffer (25 mM HEPES, 25 mM NaCl, pH 6.5). Reactions were quenched at 30 min with 50 µL 25% trichloroacetic acid. Samples were centrifuged 20 min at 16,000 × g in a tabletop centrifuge, and the supernatant was analyzed via the same HPLC method described for the catalytic efficiency assay. Controls contained 5 µL buffer in place of GUSi. Inhibition was calculated using Eq. 1.

E. eligens GUS = E. eligens GUS (Lachnospira eligens, UniProt C4Z6Z2); assay: In vitro IC50 assay (TCS-G to TCS conversion, HPLC); type: biochemical
Experimental: as §1

F. prausnitzii GUS = F. prausnitzii GUS (Faecalibacterium prausnitzii, UniProt C7H4D2); assay: as above; type: biochemical
Experimental: as §1

Clostridiales sp. GUS = assay: as above; type: biochemical; conditions: for Clostridiales sp. GUS % inhibition: Fig. 4c, triplicate
Experimental: as §1

[5] = biological target: Eubacterium sp. CAG: 76 GUS (Eubacterium sp. CAG:76, UniProt Z9TO06ZFY0); assay: as above; type: biochemical; conditions: Fig. 4c, triplicate
[6] = Solubility in water (statement); type: physicochemical; conditions: authors' reply to reviewers
[7] = read-out: C. perfringens GUS % inhibition
[8] = GUSi 1.23457 uM, Fig. 4c, triplicate
[9] = GUSi 3.7037 uM, Fig. 4c, triplicate
[10] = GUSi 11.1111 uM, Fig. 4c, triplicate
[11] = GUSi 33.3333 uM, Fig. 4c, triplicate
[12] = GUSi 100 uM, Fig. 4c, triplicate
[13] = conversion of TCS-G (200 µM) to TCS, FMN-binding GUS
[14] = GUSi 0.411523 uM, Fig. 4b, triplicate
[15] = GUSi 3.7037 uM, Fig. 4b, triplicate
[16] = GUSi 11.1111 uM, Fig. 4b, triplicate
[17] = GUSi 33.3333 uM, Fig. 4b, triplicate
[18] = GUSi 100 uM, Fig. 4b, triplicate

## O=C(O)C1OC(Oc2cc(Cl)ccc2Oc2ccc(Cl)cc2Cl)C(O)C(O)C1O (centres unmarked) [TCS-G, triclosan-glucuronide]
[1]
  Catalytic efficiency: 221350 M⁻¹ s⁻¹ and 261200 M⁻¹ s⁻¹ and 185500 M⁻¹ s⁻¹
[1]; Enzyme: B. uniformis 2, Fig. 3b, replicates 1-3
  Catalytic efficiency: 26480 M⁻¹ s⁻¹ and 25620 M⁻¹ s⁻¹ and 34030 M⁻¹ s⁻¹
[1]; Enzyme: Clostridiales sp., Fig. 3b, replicates 1-3
  Catalytic efficiency: 421200 M⁻¹ s⁻¹ and 564000 M⁻¹ s⁻¹ and 643571 M⁻¹ s⁻¹
[1]; Enzyme: E. coli, Fig. 3b, replicates 1-3
  Catalytic efficiency: 25610 M⁻¹ s⁻¹ and 27630 M⁻¹ s⁻¹ and 30620 M⁻¹ s⁻¹
[1]; Enzyme: E. eligens, Fig. 3b, replicates 1-3
  Catalytic efficiency: 789000 M⁻¹ s⁻¹ and 987900 M⁻¹ s⁻¹ and 767700 M⁻¹ s⁻¹
[1]; Enzyme: Eubacterium sp. CAG: 76, Fig. 3b, replicates 1-3
  Catalytic efficiency: 294800 M⁻¹ s⁻¹ and 499700 M⁻¹ s⁻¹ and 451000 M⁻¹ s⁻¹
[1]; Enzyme: F. prausnitzii 2-L1, Fig. 3b, replicates 1-3
  Catalytic efficiency: 876200 M⁻¹ s⁻¹ and 975000 M⁻¹ s⁻¹ and 757000 M⁻¹ s⁻¹
[1]; Enzyme: F. prausnitzii, Fig. 3b, replicates 1-3
  Catalytic efficiency: 373850 M⁻¹ s⁻¹ and 362000 M⁻¹ s⁻¹ and 260800 M⁻¹ s⁻¹
[1]; Enzyme: R. gnavus 3, Fig. 3b, replicates 1-3
  Catalytic efficiency: 816300 M⁻¹ s⁻¹ and 891300 M⁻¹ s⁻¹ and 748300 M⁻¹ s⁻¹
[1]; Enzyme: R. hominis 2, Fig. 3b, replicates 1-3
  Catalytic efficiency: 168600 M⁻¹ s⁻¹ and 249500 M⁻¹ s⁻¹ and 277800 M⁻¹ s⁻¹
[1]; Enzyme: R. hominis 3, Fig. 3b, replicates 1-3
  Catalytic efficiency: 801500 M⁻¹ s⁻¹ and 763200 M⁻¹ s⁻¹ and 1075600 M⁻¹ s⁻¹
[1]; Enzyme: R. inulinvorans, Fig. 3b, replicates 1-3
  Catalytic efficiency: 450800 M⁻¹ s⁻¹ and 617200 M⁻¹ s⁻¹ and 689000 M⁻¹ s⁻¹

## Oc1cc(Cl)ccc1Oc1ccc(Cl)cc1Cl [TCS, Triclosan]
[2]; ref 36 (reply to reviewers)
  No-Observed-Adverse-Effect Level (NOAEL): 25 to 40 mg/kg/day
[2]; ref 37 (reply to reviewers)
  calculated Acceptable Daily Intake (ADI): 0.25 to 0.4 mg/kg/day
Human fecal bacteria
  TCS formed: 10.13 pmol and 12.20 pmol and 15.57 pmol
[3]; after weeks of daily use of TCS-containing toothpaste
  plasma concentrations of TCS (TCS plus TCS-G): 90–1,000 nM
[3]; before use of TCS-containing toothpaste
  plasma concentrations of TCS (TCS plus TCS-G), baseline: 0.03 to 2.7 nM

## C1CCc2c(c(N3CCOCC3)nc3sc4c(N5CCNCC5)nnnc4c23)C1 [GUSi, UNC10201652]
Loop 1 GUS enzymes
  IC50: 0.64 to 4.9 µM
C. perfringens GUS
  IC50: 0.64 ± 0.04 µM
C. perfringens GUS; [7]
  inhibition at 1.23457 µM: 78%
  inhibition at 3.7037 µM: 93.9%
  inhibition at 11.1111 µM: 97.7%
  inhibition at 33.3333 µM: 98.6%
  inhibition at 100 µM: 99.4%
R. gnavus 3 GUS; GUSi 0.0457247 uM, Fig. 4c, triplicate
  R. gnavus 3 GUS % inhibition: -1.753% and -3.75% and 4.591%
R. gnavus 3 GUS; GUSi 0.137174 uM, Fig. 4c, triplicate
  R. gnavus 3 GUS % inhibition: 0.1348% and -1.9775% and 2.5447%
R. gnavus 3 GUS; [8]
  R. gnavus 3 GUS % inhibition: 15.6836% and 27.3384%
  inhibition at 1.23457 µM: 17.8%
R. gnavus 3 GUS; [9]
  R. gnavus 3 GUS % inhibition: 45.7722% and 58.3391%
  inhibition at 3.7037 µM: 46.7%
R. gnavus 3 GUS; [10]
  R. gnavus 3 GUS % inhibition: 62.2571% and 74.9484%
  inhibition at 11.1111 µM: 64.9%
R. gnavus 3 GUS; [11]
  R. gnavus 3 GUS % inhibition: 76.969% and 90.9388%
  inhibition at 33.3333 µM: 79.3%
R. gnavus 3 GUS; [12]
  R. gnavus 3 GUS % inhibition: 87.2656% and 101.29%
  inhibition at 100 µM: 89.5%
R. gnavus 3 GUS; [13]
  IC50: 3.7 ± 0.5 µM
[4]; human fecal extracts, GUSi 10, 1 or 0.1 µM
  effect on TCS-G processing by fecal enzyme mixtures ex vivo: inhibited TCS-G processing
[4]; human fecal sample F3, 0.1 uM GUSi
  % Inhibition: 26.0315% and 22.661% and 26.9159%
[4]; human fecal sample F3, 1 uM GUSi
  % Inhibition: 55.0638% and 49.4467% and 55.1636%
[4]; human fecal sample F3, 10 uM GUSi
  % Inhibition: 63.3658% and 70.4225% and 80.8879%
[4]; human fecal sample M1, 0.1 uM GUSi
  % Inhibition: 43.1579% and 25.7515% and 43.5009%
[4]; human fecal sample M1, 1 uM GUSi
  % Inhibition: 77.2204% and 69.1166% and 76.6073%
[4]; human fecal sample M1, 10 uM GUSi
  % Inhibition: 87.4836% and 92.1188% and 91.6683%
[4]; human fecal sample M3, 1 uM GUSi
  % Inhibition: 44.8187% and 47.2169% and 47.9485%
[4]; human fecal sample M3, 10 uM GUSi
  % Inhibition: 84.9872% and 79.6161% and 93.8804%
E. eligens GUS
  IC50: 3.1 ± 0.1 µM
E. eligens GUS; GUSi 0.0457247 uM, Fig. 4b, triplicate
  inhibition at 0.0457247 µM: 0%
E. eligens GUS; GUSi 0.137174 uM, Fig. 4b, triplicate
  inhibition at 0.137174 µM: 0%
E. eligens GUS; [14]
  inhibition at 0.411523 µM: 0%
E. eligens GUS; GUSi 1.23457 uM, Fig. 4b, triplicate
  E. eligens GUS % inhibition: 2.145% and 1.672%
E. eligens GUS; [15]
  E. eligens GUS % inhibition: 67.2992% and 67.384%
  inhibition at 3.7037 µM: 64.7%
E. eligens GUS; [16]
  E. eligens GUS % inhibition: 95.2204% and 97.0627%
  inhibition at 11.1111 µM: 90%
E. eligens GUS; [17]
  E. eligens GUS % inhibition: 103.909% and 106.718%
  inhibition at 33.3333 µM: 97.2%
E. eligens GUS; [18]
  E. eligens GUS % inhibition: 105.208% and 106.762%
  inhibition at 100 µM: 97.5%
F. prausnitzii GUS; [14]
  F. prausnitzii GUS % inhibition: -3.256% and -6.409% and 1.703%
F. prausnitzii GUS; [15]
  F. prausnitzii GUS % inhibition: 31.508% and 41.6292%
  inhibition at 3.7037 µM: 30.3%
F. prausnitzii GUS; [16]
  F. prausnitzii GUS % inhibition: 65.4843% and 60.2667%
  inhibition at 11.1111 µM: 68.7%
F. prausnitzii GUS; [17]
  F. prausnitzii GUS % inhibition: 79.5271% and 77.5064%
  inhibition at 33.3333 µM: 74.1%
F. prausnitzii GUS; [18]
  F. prausnitzii GUS % inhibition: 90.4792% and 87.3233%
  inhibition at 100 µM: 85.7%
F. prausnitzii GUS; conversion of TCS-G (200 µM) to TCS, Loop 1 GUS
  IC50: 4.9 ± 0.8 µM
Clostridiales sp. GUS; GUSi 11.1111 uM
  Clostridiales sp. GUS % inhibition: 28.4771% and 43.1829% and 36.9382%
Clostridiales sp. GUS; GUSi 33.3333 uM
  Clostridiales sp. GUS % inhibition: 61.452% and 67.3548% and 67.8202%
Clostridiales sp. GUS; GUSi 100 uM
  Clostridiales sp. GUS % inhibition: 79.8338% and 82.8373% and 85.2439%
Clostridiales sp. GUS; [13]
  IC50: 4 ± 1 µM
[5]; GUSi 11.1111 uM
  inhibition at 11.1111 µM: 57.2%
[5]; GUSi 33.3333 uM
  inhibition at 33.3333 µM: 73.6%
[5]; GUSi 100 uM
  inhibition at 100 µM: 84.1%
[6]
  solubility in water: poorly solubilized
